Assay results reported in ChEMBL document CHEMBL5512618, “MYC the oncogene from hell: Novel opportunities for cancer therapy” (Eur J Med Chem, 2024).
Each block holds one compound with its values, some of them ahead of it.

Columns and labels:
[1] = tested on: HL-60; experiment: Inhibition of cell development in human HL-60 cells; format: functional, cell-based
[2] = biological target: c-Myc/Max (Homo sapiens, UniProt P01106+P61244); experiment: Inhibition of His6-tagged Max (151 residues)(unknown origin) expressed in bacterial system/recombinant MYC ) (unknown origin) expressed in bacterial system by EMSA
[3] = Lipophilicity, logP of compound; format: physicochemical; conditions: octanol/water
[4] = tested on: Burkitts lymphoma cell; experiment: Inhibition of cell growth in human Burkitts lymphoma cells; format: functional, cell-based
[5] = biological target: Myc proto-oncogene protein (Homo sapiens, UniProt P01106); experiment: Binding affinity to CM5 sensor chip immobilized MYC bHLHZip domain (unknown origin) assessed as dissociation constant by SPR analysis

SMILES: O=[N+]([O-])c1ccc(Nc2ccccc2-c2ccccc2)c2nonc12
IC50 [1]: 7.2 µM

SMILES: COC(=O)c1ccc(Nc2ccc([N+](=O)[O-])c3nonc23)c(-c2ccc(C)cc2)c1
IC50 [2]: 34 µM

SMILES: COc1ccc2nc3cc(/N=N/c4ccc(N)nc4N)ccc3c(N)c2c1
IC50 [4]: 0.5 µM
Kd [5]: 1.6 µM

Now from value to compound:

IC50 [1]: 30 µM
SMILES: O=C(O)c1ccc(Nc2ccc([N+](=O)[O-])c3nonc23)cc1

logP [3]: 8.4
SMILES: Cn1nc(C(F)(F)F)cc1-c1ccc(OCc2ccc(Cl)cc2)c(-c2ccc(Cl)c(C(F)(F)F)c2)c1O
